Reference: patent US11739054B2 (priority 2017, dated 2023)

Experiments:
[1] = tested on: Swiss Webster mice; test: METH-induced locomotor activity assay in vaccinated mice; format: in vivo; settings: Example 4; vaccinated mice challenged with METH
Experimental: On day 42, vaccinated mice were assessed in a locomotion assay by acclimating them for 1 h in a plastic cage (10.5 in.×19 in.×8 in.) with clear ventilated acrylic top. Mice were then quickly removed and injected with saline or 0.5, 1, 2, or 4 mg/kg METH before being returned to their cages; cages were wiped down with dry paper towels to remove excess debris while mice were being injected. The mice were then returned to the cage to be recorded and tracked by overhead camera using ANY-Maze video tracking software (Stoelting Co., Wood Dale, Ill.). Sessions were run during the middle of the dark cycle in a 4.6×4.6 m^2 room with a single 30 W upward-directed light source, and then repeated on mice after a two-day washout period until all mice received all MA doses. Distance traveled (m) and time spent immobile (s; 80% pixel consistency for at least 5 s threshold) were measured and analyzed via Prism 6 software, using a two-way repeated-measures ANOVA with Bonferroni posthoc corrected comparisons. Significance was set at a=0.05 and data is represented as mean±SEM.
The mice were monitored for swelling, redness or formation of granulomas at the injection site. The mice were bled on days 21 and 42. The anti-METH IgG antibody titers were determined by ELISA. On day 45, mice were given a 2 mg/kg dose of METH and their locomotor activity was monitored.

[2] = tested on: Swiss Webster mice; format: in vivo; settings: Example 4; hapten conjugated to TT, 75 μg with 50 μg CpG + 750 μg Alhydrogel/alum, s.c. days 0, 14, 28
[3] = tested on: Swiss Webster mice; settings: mouse, in vivo, sc

| Molecule | METH-induced locomotor activity [1] | anti-METH antibody titers (ELISA) [2] | immune response [3] |
| --- | --- | --- | --- |
| CN[C@@H](CCC(=O)NCCCCCCC(=O)O)Cc1ccccc1 [I-66] | worked as well as, and possibly better than, MH-6 | at least comparable to, and possibly greater than, the MH-6 hapten | – |
| TT: tetanus toxoid scaffold protein | – | – | potent immune responses |
